Laboratory results reported in patent publication US6337344B1, “Indole derivatives as inhibitors or factor Xa” (Aventis Pharma Deutschland GmbH, priority 1997, dated 2002).
Where a name gives a salt, the structure may show the parent alone.

Experiments:
[1] = biological target: T1, human factor Xa (Homo sapiens, UniProt P00742); assay: Factor Xa assay (Test 1, a.), chromogenic substrate S-2765; format: biochemical
T1 construct: purchased Enzyme Research Laboratories, Inc; South Bend, Ind
Description: Purified enzymes are used in chromogenic assays. To determine the inhibition constant Ki, the IC50 value is corrected for competition with substrate using the formula
Ki'IC50×(1/{1+((substrate concentration)/substrate Km)})
wherein Km is the Michaelis-Menten constant (Chen and Prusoff, Biochem. Pharmacol. 22 (1973), […] which is incorporated herein by reference).
TBS-PEG buffer (50 mM Tris-Cl, pH 7.8, 200 mM NaCl, 0.05% (w/v) PEG-8000, 0.02% (w/v) NaN3) is used for this assay.
The assay is performed by pre-incubating the compound of formula I plus enzyme for 10 min. Then the assay is initiated by adding substrate to obtain a final volume of 100 μl. The initial velocity of chromogenic substrate hydrolysis is measured by the change in absorbance at 405 nm using a Bio-tek Instruments kinetic plate reader (Ceres UV900HDi) at 25° C. during the linear portion of the time course (usually 1.5 min after addition of substrate). The concentration of inhibitor that causes a 50% decrease in the rate of substrate hydrolysis is predicted by linear regression after plotting the relative rates of hydrolysis (compared to the uninhibited control) versus the log of the concentration of the compound of formula I. The enzyme concentration is 0.5 nM and substrate concentration is 140 μM.
The inhibition constants were determined as described above (Test 1, a., Factor Xa Assay).

[2] = biological target: factor Xa; conditions: values of known factor Xa inhibitors stated in the background; cited from earlier work

T1 sequence (P00742 235-488 limits assumed): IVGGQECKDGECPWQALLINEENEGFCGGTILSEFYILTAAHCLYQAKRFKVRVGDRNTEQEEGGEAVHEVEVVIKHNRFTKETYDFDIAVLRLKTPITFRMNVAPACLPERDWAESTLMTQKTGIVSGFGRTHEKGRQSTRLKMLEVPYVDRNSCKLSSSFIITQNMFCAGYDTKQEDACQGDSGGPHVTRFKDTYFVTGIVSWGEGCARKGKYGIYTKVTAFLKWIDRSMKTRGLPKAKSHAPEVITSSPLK
T1 sequence (P00742 41-179 partner limits assumed): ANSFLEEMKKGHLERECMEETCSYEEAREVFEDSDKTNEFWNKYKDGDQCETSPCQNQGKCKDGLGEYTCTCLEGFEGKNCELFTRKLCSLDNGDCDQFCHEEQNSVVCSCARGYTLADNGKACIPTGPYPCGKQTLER

Work on `CC(NC(=O)c1cc2ccccc2n1Cc1cccc(C(=N)N)c1)c1cc[n+](C)cc1` (racemic) [Example 2, (RS)-4-(1-{[1-(3-Amidino-benzyl)-1H-indole-2-carbonyl]-amino}-ethyl)-1-methylpyridinium trifluoroacetate trifluoroacetic acid salt, trifluoroacetate trifluoroacetic acid …] yielded a Ki [1] of 100 nM.

With `N=C(N)c1cccc(Cn2c(C(=O)NC(c3ccccc3)c3ccncc3)cc3ccccc32)c1.O=C(O)C(F)(F)F.O=C(O)C(F)(F)F` (racemic) [Example 23, (RS)-1-(3-Amidino-benzyl)-1H-indole-2-carboxylic acid α-(4-pyridyl)-benzyl amide trifluoroacetic acid salt] the melting point was 88 to 92 °C and the Ki [1] was 7000 nM.

In the case of `COc1cccc2c1cc(C(=O)NC(c1ccccc1)c1cc[n+](C)cc1)n2Cc1cccc(C(=N)N)c1.O=C(O)C(F)(F)F.O=C([O-])C(F)(F)F` (racemic) [Example 24, (RS)-4-({[1-(3-Amidino-benzyl)-4-methoxy-1H-indole-2-carbonyl]-amino}-phenyl-methyl)-1-methyl-pyridinium trifluoroacetate trifluoroacetic acid salt, trifluoroacetate trifluoroacetic acid …], the Ki [1] is reported as 110 nM.

Molecule `CN1CCC(C(NC(=O)c2cc3ccccc3n2Cc2cccc(C(=N)N)c2)c2ccc3cc(Cl)ccc3c2)CC1.O=C(O)C(F)(F)F.O=C(O)C(F)(F)F` (racemic) [Example 27, (RS)-1-(3-Amidino-benzyl)-1H-indole-2-carboxylic acid ((6-chloro-2-naphthyl)-(1-methyl-piperidin-4-yl)-methyl)amide trifluoroacetic acid salt] has a melting point of 110 to 120 °C and a Ki [1] of 610 nM.

For `N=C(N)c1ccc(C=C2CCCCC(=Cc3ccc(C(=N)N)cc3)C2=O)cc1` [2,7-bis-(4-amidinobenzylidene)-cycloheptanone, reference compound], the Ki [2] is given as about 20 nM.

In the case of `C[C@@H](NC(=O)c1cc2cc(OCc3ccccc3)ccc2n1Cc1cccc(C(N)=S)c1)c1ccccc1` [21(4), (R)-5-Benzyloxy-1-(3-thiocarbamoyl-benzyl)-1H-indole-2-carboxylic acid (1-phenyl-ethyl)amide], the Ki [1] is reported as 4800 nM.

With `C[N+](C)(C)c1ccc(CNC(=O)c2cc3ccccc3n2Cc2cccc(C(=N)N)c2)cc1` [Example 4, [4-({[1-(3-Amidino-benzyl)-1H-indole-2-carbonyl]-amino}-methyl)-phenyl]-trimethyl-ammonium trifluoroacetate trifluoroacetic acid salt, trifluoroacetate trifluoroacetic acid …] the Ki [1] was 90 nM.

`C[N+](C)(C)Cc1ccc(CNC(=O)c2cc3ccccc3n2Cc2cccc(C(=N)N)c2)cc1` [Example 6, [4-({[1-(3-Amidino-benzyl)-1H-indole-2-carbonyl]-amino}-methyl)-benzyl]-trimethyl-ammonium trifluoroacetate trifluoroacetic acid salt, trifluoroacetate trifluoroacetic acid …] gave a Ki [1] of 400 nM.

`Cc1cccc2c1cc(C(=O)NCc1ccc([N+](C)(C)C)cc1)n2Cc1cccc(C(=N)N)c1.O=C(O)C(F)(F)F.O=C([O-])C(F)(F)F` [Example 35, [4-({[1-(3-Amidino-benzyl)-4-methyl-1H-indole-2-carbonyl]-amino}-methyl)-phenyl]-trimethyl-ammonium trifluoroacetate trifluoroacetic acid salt, trifluoroacetate trifluoroacetic acid …] gave a Ki [1] of 9 nM.

With `CC(=O)O.CC(=O)[O-].C[N+](C)(C)c1ccc(CNC(=O)c2cc3c(O)cccc3n2Cc2cccc(C(=N)N)c2)cc1` [Example 39, [4-({[1-(3-Amidino-benzyl)-4-hydroxy-1H-indole-2-carbonyl]-amino}-methyl)-phenyl]-trimethyl-ammonium acetate acetic acid salt] the melting point was 113 °C (dec.) and the Ki [1] was 7 nM.

Molecule `Cc1cccc2c1cc(C(=O)NCc1cccc(C(=N)N)c1)n2Cc1cccc(C(=N)N)c1.O=C(O)C(F)(F)F.O=C(O)C(F)(F)F` [Example 47, 1-(3-Amidino-benzyl)-4-methyl-1H-indole-2-carboxylic acid 3-amidino-benzyl amide trifluoroacetic acid salt] has a melting point of 242 to 243 °C and a Ki [1] of 7 nM.

For `CC(=O)O.CC(=O)[O-].CC(C)(C)OC(=O)Nc1ccc2c(c1)cc(C(=O)NCc1ccc([N+](C)(C)C)cc1)n2Cc1cccc(C(=N)N)c1` [Example 58, [4-({[1-(3-Amidino-benzyl)-5-tert-butoxycarbonylamino-1H-indole-2-carbonyl]-amino}-methyl)-phenyl]-trimethyl-ammonium acetate acetic acid salt], the melting point was 146 °C (dec.) and the Ki [1] was 14 nM.

With `N=C(N)c1ccc(CNC(=O)c2cc3c(O)cccc3n2Cc2cccc(C(=N)N)c2)cc1.O=C(O)C(F)(F)F.O=C(O)C(F)(F)F` [Example 78, 1-(3-Amidino-benzyl)-4-hydroxy-1H-indole-2-carboxylic acid 4-amidino-benzylamide trifluoroacetic acid salt] the melting point was 155 to 157 °C and the Ki [1] was 210 nM.

For `N=C(N)NCCC[C@H](NC(=O)c1cc2ccccc2n1Cc1ccc(C(=N)N)cc1)C(N)=O` [Example 81, 1-(4-Amidinobenzyl)-1H-indole-2-carbonyl-L-arginyl amide trifluoroacetic acid salt], the Ki [1] was 63000 nM.

`N=C(N)c1ccc(C(=O)N2CCc3c(n(Cc4cccc(C(=N)N)c4)c4ccccc34)C2)cc1` [Example 84, 2-(4-Amidino-benzoyl)-9-(3-amidino-benzyl)-1,2,3,4-tetrahydro-9H-pyrido[3,4-b]indole trifluoroacetic acid salt] showed a Ki [1] of 900 nM.

`C[N+](C)(C)c1ccc(CNC(=O)c2c(Cl)c3ccccc3n2Cc2cccc(C(=N)N)c2)cc1` [Example 106] gave a Ki [1] of 40 nM.

Work on `Cc1cc(CNC(=O)c2cc3c(O)cccc3n2Cc2cccc(C(=N)N)c2)cc(C(F)(F)F)c1` [Example 112] yielded a Ki [1] of 13 nM.

With `N=C(N)c1cccc(CNC(=O)c2c(Cl)c3ccccc3n2Cc2cccc(C(=N)N)c2)c1` [Example 115] the Ki [1] was 9 nM.

`N=C(N)c1cccc(Cn2c(C(=O)NCc3cc(Cl)cc(Cl)c3)cc3c(O)cccc32)c1` [Example 120] gave a Ki [1] of 4.8 nM.

`COC(=O)c1cccc(CNC(=O)c2cc3c(O)cccc3n2Cc2cccc(C(=N)N)c2)c1` [Example 132] showed a Ki [1] of 2000 nM.

For “tick anticoagulant peptide (YNRLCIKPRDWIDECDSNEGGERAYFRNGKGGCDSFWICPEDHTGADYYSSYRDCFNACI; UniProt P17726 1-60, looked up) [TAP]”, the Ki [2] is given as about 0.5 nM.

B1: antistasin (protein, UniProt P15358 18-136, looked up)
Antistasin: QGPFGPGCEEAGCPEGSACNIITDRCTCSGVRCRMHCPHGFQRSRYGCEFCKCRLEPMKATCDISECPEGMMCSRLTNKCDCKIDINCRKTCPNGLKRDKLGCEYCECRPKRKLIPRLS
For B1, the Ki [2] is given as 0.05 nM.
